Data reported in patent US8057810B2, “Peptide substance revealing an immunogeroprotective effect, pharmaceutical composition on its base and the method of its application” (priority 2006, dated 2011).
Residues, ends and D or L forms follow the SMILES beside them.

Columns and labels:
[1] = system: old rats' thymus explants; experiment: Development of thymus explants taken from old rats (area index); assay type: cell-based; conditions: 0.5 ng/ml; 3rd day of cultivating; rats aged 24 months
Procedure: The experiments were staged on 35 fragments of the thymus and 45 fragments of the spleen taken from rats aged 24 months. Nutritional medium for cultivation consisted of 35% Eagle's solution, 25% calf fetal serum, 35% Hanx solution, 5% chicken embryonic extract, with the addition of glucose (0.6%), insulin (0.5 U/ml), penicillin (100 U/ml), glutamin (2 mM). […]
Peptide H-Glu-Asp-Pro-OH was added into the experimental medium in concentrations of 0.5, 10 and 100 ng/ml.
Area index (AI)—the ratio of total explant area including the growth zone to the initial area of thymus or spleen fragment was used as a criterion for measuring the biological activity. AI values were expressed in percent, control AI value being taken as 100%.

rat thymus cells = experiment: Premature aging induced by ionizing irradiation: rat thymus morphology and morphometry; assay type: in vivo, Wistar rats
Procedure: The experiments were conducted on 40 male Wistar rats 2 months old, weighing 180-210 g. Premature aging was modeled by gamma irradiation using LUCH-1 machine (source 60Co; dose output 17.166×10^−4 Gy/sec.). The animals were irradiated in the dose of 6 Gy daily for 5 days. All the animals were divided into 6 groups:
2 and 2a—irradiated rats;
3 and 3a—irradiated rats, subjected to subcutaneous injection of peptide H-Glu-Asp-Pro-OH in the dose of 0.5 μg per animal in 0.25 ml of sterile 0.9% NaCl solution in 24 hours after the first performance of irradiation for 10 days.
Animals of the 2 and 2a group received 0.9% NaCl solution in the same volume and following the same scheme. Slaughtering of the animals and extraction of their thymus were conducted using nembutal anaesthesia (50 mg/kg). Thymus in groups 1-3 was extracted on the 14th day after the experiment onset, in the 1a-3a groups—on the 21 day after the experiment onset.
Fragments of the extracted thymus were fixed for 24 hours in Buen sour liquid for optic microscopy. Material dehydration and filling it in with paraffin for optic microscopy were conducted according to conventional techniques. Paraffin sections (7 μm) were placed on a microscope slide covered with a poly-L-lysine film (Sigma). Histological and immunohistochemical examinations were carried out using Jenamed-2 microscope (Zeiss).
Review staining of the preparations was conducted by hematoxylin-eosin. Mast cells were selectively stained using 1% toluidine blue (Fluka) solution in 0.5M HCl with pH 0.5.
For electron microscopy fragments of the extracted thymus were fixed according to Karnovsky's method. […]
The morphometric studies were conducted by means of the system for computer analysis of microscopic images Imstar using Morphostar and Colquant-2 software, in accordance with the basic principles of stereology and morphometry. […] Proliferative activity index (IPCNA) was calculated using the following formula: IPCNA(%)=NPCNA/Nnuclei×100.

white mongrel male mice = experiment: Acute toxicity, single intramuscular administration; assay type: in vivo; conditions: single i.m. 1-5 mg/kg, dose exceeding the therapeutic one by more than 5000 times
Procedure: (§1) Common toxicity of H-Glu-Asp-Pro-OH was studied according to the requirements stated in the “Manual for experimental (pre-clinical) study of new pharmacological substances” (2005): acute toxicity in case of single administration of the substance and sub-acute and chronic toxicity in case of long-term administration of the peptide.
(§2) The study of acute toxicity was performed on 60 white mongrel male mice with body weight of 18-21 g. The animals were randomly subdivided into 6 equal groups. The substance was administered to the animals once, intramuscularly, in the doses of 1 mg/kg, 2 mg/kg, 3 mg/kg, 4 mg/kg, 5 mg/kg in 0.25 ml of sterile 0.9% NaCl solution. The control animals received 0.9% NaCl solution in the same volume. The study of subacute toxicity was performed on 50 white mongrel male rats with body weight of 170-210 g. Experimental animals received the substance daily, intramuscularly for 90 days in the doses of 1 μg/kg, 0.1 mg/kg, 1 mg/kg in 0.5 ml of sterile 0.9% NaCl solution. […] Upon completion of the experiment biochemical and coagulologic indices of the blood were also evaluated. […] Traditional methods were used for the evaluation of the following indices of the animals' peripheric blood: the quantity of erythrocytes, hemoglobin, reticulocytes, thrombocytes, leukocytes, leukocyte formula, erythrocyte sedimentation rate (ESR), erythrocyte resistance. […]

white mongrel male rats = experiment: Subacute toxicity, 90 days intramuscular; assay type: in vivo; conditions: i.m. daily for 90 days, 1 μg/kg, 0.1 mg/kg, 1 mg/kg (100-1000 times the therapeutic dose)
Procedure: as §1, §2

male guinea pigs = conditions: guinea pig, in vivo
Procedure: as §1, §2

[2] = group 3: irradiated rats, 0.5 μg per animal s.c. for 10 days, 14th day

N[C@@H](CCC(=O)O)C(=O)N[C@@H](CC(=O)O)C(=O)N1CCC[C@H]1C(=O)O [Peptide H-Glu-Asp-Pro-OH, glutamyl-aspartyl-proline] (H-Glu-Asp-Pro-OH)
Area index (AI) in thymus explants, increase as compared to the control AI [1]: 24% | Number of mast cells in the thymus (rat thymus cells; [2]): 32±5 per 1 mm^2 | Proliferative activity index (IPCNA) in the thymus (rat thymus cells; [2]): 55% | Involution changes of the thymus (microscopic analysis) vs irradiated groups 2 and 2a (rat thymus cells; groups 3, 3a: irradiated rats, 0.5 μg per animal s.c., 14th and 21st day): less pronounced involution changes | Acute toxicity: toxic reactions (white mongrel male mice): does not cause toxic reactions | Subacute toxicity: side effects (white mongrel male rats): absence of any side effects | Changes in blood morphology, biochemical indices, ESR, erythrocyte resistance (male guinea pigs): no statistically significant changes
